From patent US20200223826A1, “Glucose-6-Phosphate Dehydrogenase (G6PD)-Modulating Agents And Methods Of Treating G6PD Deficiency” (The Board of Trustees of the Leland Stanford Junior …, priority 2017, published 2020)

Key:
[1] = target: T1, Canton G6PD (Homo sapiens, UniProt P11413, R459L); test: In vitro proteolysis assay with chymotrypsin; conditions: in the presence of AG1, 25% in its absence
T1 construct: His (pET-28a) (N, cleaved yes); made in house; host or cells: E. coli C43 (DE3)
Protocol: 200 ng of recombinant enzymes were incubated with 1 μL of 10 ng/μL chymotrypsin for 1 hour at room temperature. 100 μM of the compound was added to some reaction conditions. The following protein level was examined by Western blot.

[2] = system: zebrafish embryos; test: Zebrafish embryo development; type: in vivo; conditions: treated at 24 hpf, scored at 32 or 48 hpf
Protocol: Adult zebrafish (AB strain; 3-18 months old) were raised and embryos were obtained through natural mating and staged according to standard protocols. Adult tbx16b104/+ were obtained. All animal procedures were performed according to NIH guidelines. Embryos were raised in E3 medium at 28.5° C.
Embryos were dechorinated with pronase at 24 hours post fertilization (hpf) and treated with 50 μg/ml of chloroquine and/or AG1 by directly adding the compounds to the well. For ROS measurements, embryos were incubated with compounds for 2 hours, and then the ROS detecting reagent (CM-H2DCFDA) was added at a final concentration of 500 ng/ml to the well for a total treatment time of 5 hours. One embryo was placed to each well of a black, opaque 96-well plate. The florescence was analyzed with excitation/emission at 485/525 nm. After ROS assays, embryos at about 32 hpf were pooled and lysed in buffer containing 50 mM Tris (pH 7.4), 150 mM NaCl, 1 mM EDTA, 0.1% NP-40, and protease inhibitor cocktail, which was followed by three cycles of freeze and thawing in liquid nitrogen. The lysate was centrifuged at 14,000 rpm at 4° C. for 15 minutes. Total protein concentration in the supernatants (total lysate) was determined by Bradford method. […] 50 μg of the lysate was used to measure NADPH levels using a NADPH quantification kit (Biovision), according to the manufacturer's instructions. […]

[3] = system: g6pd crispant embryos; test: g6pd crispant zebrafish embryos; type: in vivo; conditions: 1 μM AG1
Protocol: sgRNA against Exon 10 of g6pd was designed using CHOPCHOP and in vitro transcribed according to standard protocols. The gene-specific oligo sequence was: 5′-[…] CAAG-3′ (SEQ ID NO: //). sgRNA and Cas9 protein (NEB) were mixed and microinjected into one-cell-stage embryos. For each injected clutch, 10 individual embryos were isolated at 24 hpf for sequencing to confirm introduction of a CRISPR-mediated indel in exon 10.
Embryos were dechorinated with pronase at 24 hours post fertilization (hpf) and treated with 50 μg/ml of chloroquine and/or AG1 by directly adding the compounds to the well. For ROS measurements, embryos were incubated with compounds for 2 hours, and then the ROS detecting reagent (CM-H2DCFDA) was added at a final concentration of 500 ng/ml to the well for a total treatment time of 5 hours. One embryo was placed to each well of a black, opaque 96-well plate. The florescence was analyzed with excitation/emission at 485/525 nm. […] Total protein concentration in the supernatants (total lysate) was determined by Bradford method. […] 50 μg of the lysate was used to measure NADPH levels using a NADPH quantification kit (Biovision), according to the manufacturer's instructions.

[4] = target: glyceraldehyde 3-phosphate dehydrogenase (GAPDH) (Homo sapiens, UniProt P04406); test: Selectivity: dimerization or activity of other NAD/NADP+-dependent enzymes; type: biochemical
glyceraldehyde 3-phosphate dehydrogenase (GAPDH), sequence (P04406 whole entry, species assumed): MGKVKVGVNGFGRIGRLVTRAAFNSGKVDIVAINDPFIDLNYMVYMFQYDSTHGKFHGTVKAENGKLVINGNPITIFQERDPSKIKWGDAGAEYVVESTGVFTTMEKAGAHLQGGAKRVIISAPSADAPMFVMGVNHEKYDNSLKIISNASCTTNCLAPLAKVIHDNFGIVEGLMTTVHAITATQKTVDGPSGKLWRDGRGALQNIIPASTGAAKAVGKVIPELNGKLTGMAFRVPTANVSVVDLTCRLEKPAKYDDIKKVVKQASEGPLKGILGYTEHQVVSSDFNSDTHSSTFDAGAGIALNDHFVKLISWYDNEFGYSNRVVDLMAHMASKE

[5] = target: T2, G6PD in fibroblast cells carrying Mediterranean variant (Homo sapiens, UniProt P11413, S188F); test: Cycloheximide chase in fibroblasts; type: cell-based; conditions: cycloheximide treatment
T2 construct: host or cells: subject-derived fibroblast cell line
T2 sequence (P11413 2-515 S188F limits assumed): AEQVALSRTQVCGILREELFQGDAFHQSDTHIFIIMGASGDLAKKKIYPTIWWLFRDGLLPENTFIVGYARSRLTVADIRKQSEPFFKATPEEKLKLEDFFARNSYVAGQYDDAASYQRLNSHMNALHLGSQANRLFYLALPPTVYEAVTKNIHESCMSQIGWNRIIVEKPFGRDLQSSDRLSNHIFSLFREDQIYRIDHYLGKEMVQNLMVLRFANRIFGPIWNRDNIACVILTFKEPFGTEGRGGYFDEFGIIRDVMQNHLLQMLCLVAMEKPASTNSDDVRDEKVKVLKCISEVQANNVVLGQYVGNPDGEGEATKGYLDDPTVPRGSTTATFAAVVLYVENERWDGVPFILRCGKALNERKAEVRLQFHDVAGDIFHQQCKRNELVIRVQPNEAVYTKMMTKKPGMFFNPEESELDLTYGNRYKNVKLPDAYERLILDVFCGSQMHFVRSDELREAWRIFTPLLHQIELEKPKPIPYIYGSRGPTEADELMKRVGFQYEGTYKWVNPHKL
Protocol: Lymphocytes derived from a normal subject (HG 00866) and a G6PD-deficient subject carrying Canton variant in G6PD (HG 02367) were purchased from Coriell Institute and cultured in RPMI 1640 supplemented with 15% fetal bovine serum (FBS), 100 U/ml penicillin, and 100 μg/ml streptomycin. An SH-SY5Y neuroblastoma cell line was cultured in Dulbecco's Modification of Eagle's Medium/Ham's F-12 50/50 Mix supplemented with 10% FBS, 100 U/ml penicillin, and 100 μg/ml streptomycin. A G6PD-deficient subject-derived fibroblast cell line carrying Mediterranean variant and normal fibroblast cell line as control were purchased from Coriell Institute (GM 01152) and ThermoFisher Scientific (C0135C), respectively, and cultured in minimum essential medium supplemented with 15% FBS, 100 U/ml penicillin, and 100 μg/ml streptomycin. All the cell lines were maintained at 37° C. in a humidified incubator with an atmosphere of 5% of CO2 and 95% air.
50,000 cells (SH-SH5Y cells or fibroblast cells) or 100,000 cells (lymphocytes) were seeded in a 12-well plate and incubated overnight. The cells were subjected to serum starvation (50-75%) for 48 hours and treated with 50 μg/ml of cycloheximide at different time points (0-48 hours). The cells were treated with the compound (1 μM) for 48 hours together with cycloheximide. […]

T1 sequence (P11413 whole entry R459L): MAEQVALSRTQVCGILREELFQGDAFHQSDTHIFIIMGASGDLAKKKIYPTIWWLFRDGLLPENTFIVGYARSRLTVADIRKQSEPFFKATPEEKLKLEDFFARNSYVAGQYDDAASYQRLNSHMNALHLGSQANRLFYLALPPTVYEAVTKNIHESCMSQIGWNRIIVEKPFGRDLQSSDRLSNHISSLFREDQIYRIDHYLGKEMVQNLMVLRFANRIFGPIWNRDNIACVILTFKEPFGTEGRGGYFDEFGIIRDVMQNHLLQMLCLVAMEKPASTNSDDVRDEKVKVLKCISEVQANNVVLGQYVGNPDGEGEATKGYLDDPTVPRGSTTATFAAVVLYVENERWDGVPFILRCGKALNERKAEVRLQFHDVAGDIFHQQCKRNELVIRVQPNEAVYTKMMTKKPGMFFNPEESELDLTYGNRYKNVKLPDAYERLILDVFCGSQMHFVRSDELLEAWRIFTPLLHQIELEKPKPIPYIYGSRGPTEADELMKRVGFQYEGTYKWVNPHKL

Question: How did the “protein remaining after proteolysis” value [1] turn out when SCCNCCc1c[nH]c2ccccc12 [AG1, 2-[2-(1H-indol-3-yl)ethylamino]ethanethiol] was run?
Answer: 50%

Question: And the “concentrations at which embryos developed normally” value [2]?
Answer: < 10 µM

Question: And the “ROS, G6PD activity, NADPH level, pericardial edema” value [3]?
Answer: did not significantly affect

Question: And the “effect on dimerization or activity” value [4]?
Answer: no effect

Question: What about the “stability of G6PD” value [5] of the same compound?
Answer: stabilized
